Laboratory results from ChEMBL document CHEMBL2086246, “Synthesis and optimization of substituted furo[2,3-d]-pyrimidin-4-amines and 7H-pyrrolo[2,3-d]pyrimidin-4-amines as ACK1 inhibitors” (Bioorg Med Chem Lett, 2012).
Active and inactive are the calls of the source. No cut-off for these calls is given here.

How the values were obtained:
Activated CDC42 kinase 1 [1] = molecular target: T1, Activated CDC42 kinase 1 (Homo sapiens, UniProt Q07912); assay: Inhibition of N-terminal His6-tagged ACK1 expressed in baculovirus infected Hi5 cells assessed as inhibition of autophosphorylation after 2 hrs by ELISA; parameters: species or system BTI-TN-5B1-4
Target sequence in this assay (Q07912 whole entry): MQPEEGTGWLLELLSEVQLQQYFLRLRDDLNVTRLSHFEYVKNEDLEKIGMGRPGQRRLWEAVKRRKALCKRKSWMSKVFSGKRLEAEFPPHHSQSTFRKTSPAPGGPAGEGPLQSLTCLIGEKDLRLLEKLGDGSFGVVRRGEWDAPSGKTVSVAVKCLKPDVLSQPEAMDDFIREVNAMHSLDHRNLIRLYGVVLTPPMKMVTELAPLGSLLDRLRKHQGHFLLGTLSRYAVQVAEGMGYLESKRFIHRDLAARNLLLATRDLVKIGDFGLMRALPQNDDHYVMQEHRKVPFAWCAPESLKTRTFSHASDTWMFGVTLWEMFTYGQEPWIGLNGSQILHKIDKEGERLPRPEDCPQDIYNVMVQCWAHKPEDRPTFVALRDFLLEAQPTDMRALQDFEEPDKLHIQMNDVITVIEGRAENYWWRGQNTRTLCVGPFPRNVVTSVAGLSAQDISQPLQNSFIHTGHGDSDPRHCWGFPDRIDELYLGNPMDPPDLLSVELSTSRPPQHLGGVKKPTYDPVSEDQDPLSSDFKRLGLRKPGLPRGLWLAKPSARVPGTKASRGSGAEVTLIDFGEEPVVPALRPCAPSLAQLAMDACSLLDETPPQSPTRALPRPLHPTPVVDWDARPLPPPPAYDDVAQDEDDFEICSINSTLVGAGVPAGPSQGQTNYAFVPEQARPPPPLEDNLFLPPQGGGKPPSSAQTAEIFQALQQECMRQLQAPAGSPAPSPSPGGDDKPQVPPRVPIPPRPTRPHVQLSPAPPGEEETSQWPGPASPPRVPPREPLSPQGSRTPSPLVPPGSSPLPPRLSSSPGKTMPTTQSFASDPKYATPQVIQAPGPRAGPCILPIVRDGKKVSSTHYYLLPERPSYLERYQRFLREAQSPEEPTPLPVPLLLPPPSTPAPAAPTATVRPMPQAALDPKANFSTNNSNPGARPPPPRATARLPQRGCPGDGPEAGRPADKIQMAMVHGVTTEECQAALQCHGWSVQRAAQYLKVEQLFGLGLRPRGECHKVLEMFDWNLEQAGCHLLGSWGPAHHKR

[2] = Mean residence time in Sprague-Dawley rat at 1 mg/kg, iv; assay type: ADME, organism-based; parameters: dose 1 mg/kg, route intravenous; conditions: in vivo
[3] = Drug metabolism in rat liver S9 fraction assessed as dithiolane ring oxidation; assay type: ADME, subcellular
[4] = Drug metabolism in rat liver S9 fraction assessed as dimethylamino oxidation; assay type: ADME, subcellular
[5] = Volume of distribution at steady state in Sprague-Dawley rat at 1 mg/kg, iv; assay type: ADME, organism-based; parameters: dose 1 mg/kg, route intravenous; conditions: in vivo, read-out: Vdss
[6] = Clearance in Sprague-Dawley rat at 1 mg/kg, iv; assay type: ADME, organism-based; parameters: dose 1 mg/kg, route intravenous; conditions: in vivo
Activated CDC42 kinase 1 [7] = molecular target: T1, Activated CDC42 kinase 1; assay: Inhibition of ACK1
Target sequence in this assay (Q07912 whole entry): as above

Activated CDC42 kinase 1 [8] = molecular target: T1, Activated CDC42 kinase 1; assay: Competitive inhibition of ACK1 using ATP
Target sequence in this assay (Q07912 whole entry, looked up): as the sequence (Q07912 whole entry) above

Activated CDC42 kinase 1 [9] = molecular target: T1, Activated CDC42 kinase 1; assay: Reversible inhibition of ACK1
Target sequence in this assay (Q07912 whole entry, looked up): as the sequence (Q07912 whole entry) above

Activated CDC42 kinase 1 [10] = molecular target: Activated CDC42 kinase 1 (Mus musculus, UniProt O54967); assay: Inhibition of ACK1 in mouse C8 cells assessed as decrease in cell viability after 20 to 24 hrs; assay type: cell-based
Angiopoietin-1 receptor = Angiopoietin-1 receptor (Homo sapiens, UniProt Q02763); assay: Inhibition of TIE2
[11] = molecular target: Tyrosine-protein kinase Lck (Homo sapiens, UniProt P06239); assay: Inhibition of LCK
[12] = molecular target: Vascular endothelial growth factor receptor 2 (Homo sapiens, UniProt P35968); assay: Inhibition of KDR
[13] = molecular target: T2, Tyrosine-protein kinase JAK3 (Homo sapiens, UniProt P52333); assay: Inhibition of JAK3
T2 sequence (P52333 whole entry): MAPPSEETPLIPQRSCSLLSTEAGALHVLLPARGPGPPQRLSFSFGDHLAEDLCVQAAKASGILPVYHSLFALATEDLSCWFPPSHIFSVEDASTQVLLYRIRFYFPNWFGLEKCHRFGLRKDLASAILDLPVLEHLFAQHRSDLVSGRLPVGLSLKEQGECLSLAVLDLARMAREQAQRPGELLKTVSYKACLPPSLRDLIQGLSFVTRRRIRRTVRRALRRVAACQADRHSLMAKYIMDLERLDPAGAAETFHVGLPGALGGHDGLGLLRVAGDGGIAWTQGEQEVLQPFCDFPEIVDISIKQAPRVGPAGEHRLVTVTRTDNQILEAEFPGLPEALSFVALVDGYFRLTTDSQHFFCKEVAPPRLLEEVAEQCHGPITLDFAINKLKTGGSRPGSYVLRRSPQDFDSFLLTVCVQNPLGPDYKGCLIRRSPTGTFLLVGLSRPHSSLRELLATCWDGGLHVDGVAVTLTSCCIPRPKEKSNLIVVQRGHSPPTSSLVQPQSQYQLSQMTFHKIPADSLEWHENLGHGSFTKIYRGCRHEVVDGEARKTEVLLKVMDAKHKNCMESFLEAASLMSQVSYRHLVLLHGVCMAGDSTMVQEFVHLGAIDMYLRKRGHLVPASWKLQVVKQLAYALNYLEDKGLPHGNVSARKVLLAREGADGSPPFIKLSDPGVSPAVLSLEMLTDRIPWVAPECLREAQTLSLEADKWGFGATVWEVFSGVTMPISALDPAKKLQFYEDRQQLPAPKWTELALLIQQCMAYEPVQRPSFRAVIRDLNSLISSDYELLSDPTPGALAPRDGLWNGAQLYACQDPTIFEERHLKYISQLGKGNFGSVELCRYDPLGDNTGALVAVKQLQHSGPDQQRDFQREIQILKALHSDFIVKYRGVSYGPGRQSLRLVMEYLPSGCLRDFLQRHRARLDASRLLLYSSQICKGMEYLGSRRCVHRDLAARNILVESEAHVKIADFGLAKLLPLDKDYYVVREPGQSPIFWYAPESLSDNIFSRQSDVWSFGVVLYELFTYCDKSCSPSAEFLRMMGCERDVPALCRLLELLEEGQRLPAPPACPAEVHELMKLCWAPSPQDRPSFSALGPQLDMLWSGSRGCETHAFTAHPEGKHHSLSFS

Chain of Tyrosine-protein kinase Lck (P06239 whole entry): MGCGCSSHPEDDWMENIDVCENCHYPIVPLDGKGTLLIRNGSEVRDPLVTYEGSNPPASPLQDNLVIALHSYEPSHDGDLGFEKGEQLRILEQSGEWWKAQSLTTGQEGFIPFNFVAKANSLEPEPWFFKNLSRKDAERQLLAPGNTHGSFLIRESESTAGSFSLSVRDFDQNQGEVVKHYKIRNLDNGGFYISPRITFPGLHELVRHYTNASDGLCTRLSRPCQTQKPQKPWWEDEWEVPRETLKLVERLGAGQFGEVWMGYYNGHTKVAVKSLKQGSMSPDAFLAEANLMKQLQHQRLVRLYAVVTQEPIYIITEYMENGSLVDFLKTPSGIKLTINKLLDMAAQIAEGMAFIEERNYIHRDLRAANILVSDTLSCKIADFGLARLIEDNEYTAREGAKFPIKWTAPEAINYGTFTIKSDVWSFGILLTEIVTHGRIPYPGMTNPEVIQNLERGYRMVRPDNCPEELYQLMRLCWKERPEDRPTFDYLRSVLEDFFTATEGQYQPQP
Chain of Vascular endothelial growth factor receptor 2 (P35968 whole entry): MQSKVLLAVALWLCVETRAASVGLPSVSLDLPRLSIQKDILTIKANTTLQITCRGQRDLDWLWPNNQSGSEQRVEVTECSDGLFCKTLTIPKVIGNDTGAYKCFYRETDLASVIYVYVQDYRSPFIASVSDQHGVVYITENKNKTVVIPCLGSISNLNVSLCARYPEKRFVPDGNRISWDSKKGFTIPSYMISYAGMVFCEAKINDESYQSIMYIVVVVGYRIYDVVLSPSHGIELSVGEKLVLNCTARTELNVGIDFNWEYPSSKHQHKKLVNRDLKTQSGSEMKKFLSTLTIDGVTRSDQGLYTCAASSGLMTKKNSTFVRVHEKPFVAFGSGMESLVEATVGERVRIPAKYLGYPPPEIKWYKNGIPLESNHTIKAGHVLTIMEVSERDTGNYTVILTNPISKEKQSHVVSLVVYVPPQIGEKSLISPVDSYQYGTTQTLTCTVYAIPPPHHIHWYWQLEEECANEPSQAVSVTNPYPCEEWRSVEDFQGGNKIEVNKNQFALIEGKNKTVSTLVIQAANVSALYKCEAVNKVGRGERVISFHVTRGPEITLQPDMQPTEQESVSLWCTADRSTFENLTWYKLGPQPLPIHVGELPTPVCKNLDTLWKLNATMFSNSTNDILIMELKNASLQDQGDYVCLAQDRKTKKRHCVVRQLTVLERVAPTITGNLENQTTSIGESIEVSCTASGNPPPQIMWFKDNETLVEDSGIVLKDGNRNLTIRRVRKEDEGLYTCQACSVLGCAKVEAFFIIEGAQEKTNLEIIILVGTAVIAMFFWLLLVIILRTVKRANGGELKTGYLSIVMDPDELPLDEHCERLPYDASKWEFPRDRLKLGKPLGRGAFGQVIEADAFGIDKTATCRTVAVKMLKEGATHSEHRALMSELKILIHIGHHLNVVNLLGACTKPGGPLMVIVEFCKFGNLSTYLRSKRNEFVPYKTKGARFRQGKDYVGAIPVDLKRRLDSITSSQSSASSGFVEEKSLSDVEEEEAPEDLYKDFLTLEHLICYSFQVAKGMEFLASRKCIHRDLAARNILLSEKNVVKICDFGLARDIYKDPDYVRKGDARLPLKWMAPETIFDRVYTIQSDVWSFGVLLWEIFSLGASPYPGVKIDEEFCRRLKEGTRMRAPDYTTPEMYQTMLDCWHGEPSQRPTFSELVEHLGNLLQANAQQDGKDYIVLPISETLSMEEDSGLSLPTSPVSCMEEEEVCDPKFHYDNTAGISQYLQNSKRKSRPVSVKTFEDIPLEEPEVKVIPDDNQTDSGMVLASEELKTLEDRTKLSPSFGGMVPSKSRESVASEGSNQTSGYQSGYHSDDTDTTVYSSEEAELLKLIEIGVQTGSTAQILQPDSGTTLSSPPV
Chain of Activated CDC42 kinase 1 (Mus musculus, UniProt O54967) (O54967 whole entry): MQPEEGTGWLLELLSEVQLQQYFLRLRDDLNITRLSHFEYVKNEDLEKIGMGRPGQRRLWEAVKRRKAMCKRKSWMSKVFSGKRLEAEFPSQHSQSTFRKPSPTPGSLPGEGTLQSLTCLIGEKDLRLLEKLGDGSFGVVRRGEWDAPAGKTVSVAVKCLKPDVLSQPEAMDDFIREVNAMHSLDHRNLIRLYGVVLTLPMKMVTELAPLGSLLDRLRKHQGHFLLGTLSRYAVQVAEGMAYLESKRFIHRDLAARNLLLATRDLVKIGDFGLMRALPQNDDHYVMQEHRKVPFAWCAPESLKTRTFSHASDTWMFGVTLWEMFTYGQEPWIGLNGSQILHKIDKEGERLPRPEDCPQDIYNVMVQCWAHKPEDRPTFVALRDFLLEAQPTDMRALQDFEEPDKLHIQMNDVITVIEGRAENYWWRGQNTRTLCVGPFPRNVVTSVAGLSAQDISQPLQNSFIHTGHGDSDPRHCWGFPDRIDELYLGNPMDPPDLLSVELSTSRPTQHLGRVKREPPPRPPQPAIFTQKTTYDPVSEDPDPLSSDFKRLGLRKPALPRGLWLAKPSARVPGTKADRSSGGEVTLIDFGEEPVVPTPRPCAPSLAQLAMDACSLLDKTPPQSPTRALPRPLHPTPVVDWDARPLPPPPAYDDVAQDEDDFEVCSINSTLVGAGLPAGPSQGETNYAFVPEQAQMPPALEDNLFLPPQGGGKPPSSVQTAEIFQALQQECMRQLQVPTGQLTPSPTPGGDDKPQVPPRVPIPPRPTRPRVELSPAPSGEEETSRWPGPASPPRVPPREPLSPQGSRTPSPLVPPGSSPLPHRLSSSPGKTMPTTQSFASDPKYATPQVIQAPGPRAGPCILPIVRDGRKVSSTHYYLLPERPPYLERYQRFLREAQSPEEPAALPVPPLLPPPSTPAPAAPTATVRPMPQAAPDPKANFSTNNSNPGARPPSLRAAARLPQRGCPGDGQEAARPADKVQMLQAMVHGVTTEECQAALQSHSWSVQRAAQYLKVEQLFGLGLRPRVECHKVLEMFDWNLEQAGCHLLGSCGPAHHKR

| Compound | Ki (Activated CDC42 kinase 1 [1]) | further results |
| --- | --- | --- |
| c1ccc(-c2nc3ncnc(NC[C@@H]4CCCO4)c3n2-c2ccccc2)cc1 | 7300 nM |  |
| Cc1ccccc1-c1c(-c2ccc(OCCN3CCCC3)cc2)[nH]c2ncnc(NC[C@@H]3CCCO3)c12 | 20 nM |  |
| CO[C@@H]1CCC[C@H]1CNc1ncnc2[nH]c(-c3ccc(OCCN(C)C)cc3)c(-c3ccccc3)c12 | 50 nM |  |
| c1ccc(-c2c(-c3ccc(OCCN4CCOCC4)cc3)[nH]c3ncnc(NC[C@@H]4CCCO4)c23)cc1 | 6 nM |  |
| CN(C)CCOc1ccc(-c2oc3ncnc(NCC4SCCS4)c3c2-c2ccccc2)cc1 | 0.2 nM |  |
| CN(C)CCOc1ccc(-c2oc3ncnc(NCC4OCCO4)c3c2-c2ccccc2)cc1 | 13 nM |  |
| CN(C)CCOc1ccc(-c2oc3ncnc(NCC4CCCS4)c3c2-c2ccccc2)cc1 (racemic) | 8 nM |  |
| COc1ccc(-c2[nH]c3ncnc(NC[C@@H]4CCCO4)c3c2-c2ccccc2)cc1 | 6 nM |  |
| c1ccc(-c2c(-c3ccc(OCCN4CCCC4)cc3)[nH]c3ncnc(NC[C@@H]4CCCO4)c23)cc1 | 6 nM |  |
| c1ccc(-c2sc3ncnc(NC[C@@H]4CCCO4)c3c2-c2ccccc2)cc1 | > 10000 nM |  |
| COc1ccc(-c2oc3ncnc(NC[C@@H]4CCCO4)c3c2-c2ccccc2)cc1 | 5 nM |  |
| O=C1CCCN1CCOc1ccc(-c2[nH]c3ncnc(NC[C@@H]4CCCO4)c3c2-c2ccccc2)cc1 | 4 nM |  |
| c1ccc(-c2nc3ncnc(NC[C@@H]4CCCO4)n3c2-c2ccccc2)cc1 | 1800 nM |  |
| CN(C)C(=O)c1ccc(-c2oc3ncnc(NC[C@@H]4CCCO4)c3c2-c2ccccc2)cc1 | 10 nM |  |
| c1cncc(-c2c(-c3ccc(OCCN4CCCC4)cc3)[nH]c3ncnc(NC[C@@H]4CCCO4)c23)c1 | 40 nM |  |
| CN(C)C(=O)c1ccc(-c2[nH]c3ncnc(NC[C@@H]4CCCO4)c3c2-c2ccccc2)cc1 | 2 nM |  |
| CS(=O)(=O)c1ccc(-c2[nH]c3ncnc(NC[C@@H]4CCCO4)c3c2-c2ccccc2)cc1 | 7 nM |  |
| COc1cccc(-c2c(-c3ccc(OCCN4CCCC4)cc3)[nH]c3ncnc(NC[C@@H]4CCCO4)c23)c1 | 10 nM |  |
| CN(C)S(=O)(=O)c1ccc(-c2[nH]c3ncnc(NC[C@@H]4CCCO4)c3c2-c2ccccc2)cc1 | 2 nM |  |
| c1ccc(-c2[nH]c3ncnc(NC[C@@H]4CCCO4)c3c2-c2ccccc2)cc1 | 6 nM |  |
| CN(C)CCOc1ccc(-c2[nH]c3ncnc(NCC4SCCS4)c3c2-c2ccccc2)cc1 |  | MRT [2]: 3.6 h; Drug metabolism [3]: Active; Drug metabolism [4]: Active; Vd [5]: 26.6 L/kg; clearance [6]: 7.5 L/h/kg |
| CO[C@@H]1CC[C@H]1CNc1ncnc2[nH]c(-c3ccc(OCCN(C)C)cc3)c(-c3ccccc3)c12 (racemic) | 20 nM |  |

| Compound | Ki (Activated CDC42 kinase 1 [1]) | further results |
| --- | --- | --- |
| CN(C)CCOc1ccc(-c2[nH]c3ncnc(NC[C@@H]4CC[C@H]4O)c3c2-c2ccccc2)cc1 (racemic) | 30 nM |  |
| CN(C)CCOc1ccc(-c2oc3ncnc(NC[C@@H]4CCCO4)c3c2-c2ccccc2)cc1 | 5 nM |  |
| CNC(=O)c1ccc(-c2oc3ncnc(NC[C@@H]4CCCO4)c3c2-c2ccccc2)cc1 | 13 nM |  |
| CNS(=O)(=O)c1ccc(-c2[nH]c3ncnc(NC[C@@H]4CCCO4)c3c2-c2ccccc2)cc1 | 2 nM |  |
| c1ccc(-c2c(-c3ccc(OCCN4CCOCC4)cc3)oc3ncnc(NC[C@@H]4CCCO4)c23)cc1 | 4 nM |  |
| Nc1ncnc2oc(-c3ccccc3)c(-c3ccccc3)c12 |  | Ki (Activated CDC42 kinase 1 [7]): 1000 nM; inhibition (Activated CDC42 kinase 1 [8]): Active; inhibition (Activated CDC42 kinase 1 [9]): Active |
| c1ccc(-c2oc3nccc(NC[C@@H]4CCCO4)c3c2-c2ccccc2)cc1 | 70 nM |  |
| CN(C)CCOc1ccc(-c2[nH]c3ncnc(NC[C@@H]4CCCO4)c3c2C2CC2)cc1 | 1980 nM | IC50 (Activated CDC42 kinase 1 [10]): Not Active |
| O=C(c1ccc(-c2[nH]c3ncnc(NC[C@@H]4CCCO4)c3c2-c2ccccc2)cc1)N1CCOCC1 | 6 nM |  |
| O=C1CCCN1CCOc1ccc(-c2oc3ncnc(NC[C@@H]4CCCO4)c3c2-c2ccccc2)cc1 | 4 nM |  |
| CS(=O)(=O)c1ccc(-c2oc3ncnc(NC[C@@H]4CCCO4)c3c2-c2ccccc2)cc1 | 8 nM |  |
| CNS(=O)(=O)c1ccc(-c2oc3ncnc(NC[C@@H]4CCCO4)c3c2-c2ccccc2)cc1 | 4 nM |  |
| CO[C@@H]1CCC[C@@H]1CNc1ncnc2[nH]c(-c3ccc(OCCN(C)C)cc3)c(-c3ccccc3)c12 | 50 nM |  |
| Fc1ccccc1-c1c(-c2ccc(OCCN3CCCC3)cc2)[nH]c2ncnc(NC[C@@H]3CCCO3)c12 | 4 nM |  |
| CN(C)CCOc1ccc(-c2[nH]c3ncnc(NC[C@@H]4CCCO4)c3c2C2=CCCC2)cc1 | 20 nM |  |
| CN(C)CCOc1ccc(-c2oc3ncnc(NCC4SCCCS4)c3c2-c2ccccc2)cc1 | 4 nM |  |
| c1ccc(-c2c(-c3ccc(OCCN4CCCC4)cc3)[nH]c3ncnc(NCC4SCCS4)c23)cc1 | 0.3 nM | Ki (Angiopoietin-1 receptor): 200 nM; Ki [11]: 138 nM; MRT [2]: 2.3 h; Ki [12]: 380 nM; Vd [5]: 15.6 L/kg; Ki [13]: 6.5 nM; clearance [6]: 6.8 L/h/kg |
| CN(C)CCOc1ccc(-c2[nH]c3ncnc(NC[C@@H]4CCCO4)c3c2-c2ccccc2)cc1 | 6 nM |  |
| O=C(c1ccc(-c2oc3ncnc(NC[C@@H]4CCCO4)c3c2-c2ccccc2)cc1)N1CCOCC1 | 6 nM |  |
| CN(C)CCOc1ccc(-c2[nH]c3ncnc(NC[C@@H]4CCCO4)c3c2C2=CCCCC2)cc1 | 10 nM |  |
| CN(C)CCOc1ccc(-c2oc3ncnc(NC[C@@H]4CCCCS4)c3c2-c2ccccc2)cc1 | 69 nM |  |
| CNC(=O)c1ccc(-c2[nH]c3ncnc(NC[C@@H]4CCCO4)c3c2-c2ccccc2)cc1 | 3 nM |  |
